From PMC3967790 (Journal of pharmaceutical sciences, 2013)
Values after ≈ are worked out from the molar mass of the structure shown. Like-named read-outs stand apart in the source and are kept apart here.

Assays:
[1] = Equilibrium solubility of elacridar in microemulsion components; assay type: physicochemical; conditions: 37 °C, oil or lipid, thermodynamic from solid
[2] = mouse, cited from earlier work
[3] = FVB, mouse, brain, oral, 20 mg/kg

solubility at 24 h ([1]; Captex 300 (oil)) | solubility at 24 h ([1]; Captex 355 (oil)) | concentration at 1 h [3] | SMILES | bioavailability ([2]; intraperitoneal dose, suspension) | bioavailability ([2]; oral dose, suspension at 100 mg/kg)
300 ± 1 µg/mL (≈ 532 µM) | 300 ± 1 µg/mL (≈ 532 µM) | – | COc1cc2c(cc1OC)CN(CCc1ccc(NC(=O)c3cccc4c(=O)c5cccc(OC)c5[nH]c34)cc1)CC2 [elacridar, N-(4-(2-(1,2,3,4-tetrahydro-6,7-dimethoxy-2-isoquinolinyl)ethyl)phenyl)-9,10-dihydro-5-methoxy-9-oxo-4-acridine carboxamide] | ~1% | about 22%
– | – | 76.4 ± 7.8 ng/mL | C#Cc1cccc(Nc2ncnc3cc(OCCOC)c(OCCOC)cc23)c1 [erlotinib] | – | –
